{
  "source": "paper PMC10829512",
  "about": "“Transport of metformin metabolites by guanidinium exporters of the small multidrug resistance family” (The Journal of General Physiology, 2024)",
  "key": {"Gdx-Clo [1]": {"molecular_target": "T1, Gdx-Clo (Clostridiales bacterium oral taxon 876, UniProt U2EQ00)", "T1 sequence (U2EQ00 1-105)": "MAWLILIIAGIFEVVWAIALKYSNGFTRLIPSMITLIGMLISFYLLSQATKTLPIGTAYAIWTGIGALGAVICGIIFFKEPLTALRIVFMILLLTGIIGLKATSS", "assay": "SSM electrophysiology of Gdx-Clo proteoliposomes", "assay_type": "biochemical, Clostridales oral taxon 876", "details": "for Transport currents in substrate screen: 2 mM substrate", "procedure": "Gdx-Clo ([Kermani et al., 2018]), Gdx-Eco ([Kermani et al., 2018]), EmrE ([Kermani et al., 2022]), and Gdx-pAmi ([Martinez-Vaz et al., 2022]) construct design and purification have been described previously. […] Proteins were overexpressed in C41(DE3). Expression was induced by the addition of 0.2 mM IPTG for 3 h. Cells were lysed and extracted with 2% n-decyl-β-D-maltoside (DM) for 2 h. After pelleting insoluble cell debris, proteins were purified using cobalt affinity resin. Wash buffer contained 25 mM Tris, pH 8.5, 150 mM NaCl, and 5 mM DM. For Gdx-pAmi, NaCl concentration was increased to 500 mM NaCl. The affinity column was washed with wash buffer, then wash buffer with 10 mM imidazole, prior to elution with wash buffer with 400 mM imidazole. For Gdx-Clo and Gdx-Eco, histidine tags were cleaved with LysC (200 ng/mg of protein; 2 h at room temperature; New England Biolabs), and for all others, histidine tags were cleaved with thrombin (1 U/mg of protein, overnight at room temperature; MilliporeSigma). Proteins were further purified using a gel filtration Superdex200 column (Cytiva) equilibrated with 100 mM NaCl, 10 mM N-2-hydroxyethylpiperazine-N′-2-ethanesulfonic acid (HEPES), pH 7.5, and 5 mM DM. Purified proteins were stored at 4°C for up to 5 days before detergent binding assays. To prepare proteoliposomes for electrophysiology assays, purified protein was mixed with E. coli polar lipid extract (10 mg/ml; Avanti Polar Lipids) solubilized with 35 mM 3-[(3-cholamidopropyl)dimethylammonio]-1-propanesulfonate (CHAPS) at a protein to lipid ratio of 40 μg SMR transporter: mg lipid (1:370 protein:lipid molar ratio) prior to detergent removal by dialysis. For preparations that included Fluc-Bpe, liposomes were reconstituted with a molar ratio of 0.3 Fluc-Bpe:1 SMRGdx: 5920 lipid (1 μg Fluc-Bpe and ∼2.5 μg SMRGdx per mg lipid). For liposome transport assays, proteoliposomes were prepared similarly, except that a 2:1 mixture of 1-palmitoyl, 2-oleoylphosphatidylethanolamine (POPE) and 1-palmitoyl, 2-oleoylphosphatidylglycerol (POPG) (10 mg/ml; Avanti Polar Lipids) was used with 0.2 μg protein/mg lipid. Proteoliposomes were stored at −80°C until use.\nSSM experiments were performed using SURFE^2R N1 instrument (Nanion Technologies). Sensors were prepared with a 1,2-diphytanoyl-sn-glycero-3-phosphocholine (DPhPC) lipid monolayer according to published protocols ([Bazzone et al., 2017]). Each sensor’s capacitance and conductance were verified before use (<80 nF capacitance, <50 nS conductance) using Nanion software protocols. Proteoliposome stock was diluted 1:25 in assay buffer (100 mM KCl, 100 mM KPO4, pH 7.5) prior to adsorption to the DPhPC monolayer. For substrate screening experiments, reference substrate samples (Gdm^+ for SMRGdx, and TPA^+ for SMRQac) were checked periodically to test for the stability of the sensor; if the current amplitude of the reference compound differed by >10% on one sensor, it indicated the desorption of liposomes, and the sensor was not used for further experiments. For every SSM electrophysiology experiment, we used the same general solution exchange protocol: after 2 s perfusion with a non-activating solution, we perfused substrate-containing buffer for 2 s and then returned to the equilibrium condition with a 4 s perfusion of non-activating buffer. For experiments with the S104C/A70C crosslinked variant, reducing conditions were established by the addition of 2.5 mM tris(2-carboxyethyl)phosphine (TCEP) to the activating and non-activating buffers.\nWe screened a series of metformin metabolites for transport using SSM electrophysiology (Fig. 2, A and B)."}, "Gdx-Clo [2]": {"molecular_target": "T1, Gdx-Clo", "assay": "Tryptophan fluorescence substrate binding", "design": "species or system Clostridales oral taxon 876", "procedure": "Fluorescence emission spectra (λex = 280 nm, […]) were collected for 1 µM purified protein in assay buffer containing 200 mM NaCl, 10 mM HEPES, 10 mM bicine, 10 mM NaPO4, and 5 mM DM, with pH adjusted from 6.5 to 9.0. Substrate was added from a stock solution prepared in assay buffer. For Gdm^+ titrations, the change in fluorescence, F, as a function of substrate fit to a single site binding isotherm, ∆F=(Fmax[S]/Kd+[S]). (3)\nTo derive the Ka values and Kd values from the apparent Kd measured as a function of pH, we used the following equation, which uses the approximation that the protonatable E13 sidechains have equal Ka values: Kd,app=(Kd)*(1+([H^+]/Ka))*(1+([H^+]/Ka)). (5)"}, "[3]": {"details": "pH 7.5, mean ± SEM, read-out: Km determined using SSM electrophysiology"}, "[4]": {"details": "pH 6.5, tryptophan fluorescence, mean ± SEM, read-out: Kd (apparent) for substrate binding to Gdx-Clo"}, "[5]": {"details": "pH 7.0, tryptophan fluorescence, mean ± SEM, read-out: Kd (apparent) for substrate binding to Gdx-Clo"}, "[6]": {"details": "pH 7.5, tryptophan fluorescence, mean ± SEM, read-out: Kd (apparent) for substrate binding to Gdx-Clo"}, "[7]": {"details": "pH 8.0, tryptophan fluorescence, mean ± SEM, read-out: Kd (apparent) for substrate binding to Gdx-Clo"}, "[8]": {"details": "pH 8.5, tryptophan fluorescence, mean ± SEM, read-out: Kd (apparent) for substrate binding to Gdx-Clo"}, "[9]": {"details": "pH-independent Kd, glutamates assumed to have equal Ka, read-out: Kd from fit of apparent Kd versus pH to Eq. 5"}},
  "note": "Where two headings read alike, the source gives them in different places.",
  "data": [
    {"compound": "N=C(N)N", "note": "[Gdm^+, guanidinium]", "values": [
      {"measurement": "Transport currents in substrate screen", "setting": "Gdx-Clo [1]", "result": "transported"},
      {"measurement": "Km", "setting": "Gdx-Clo [1]; [3]", "result": "500 ± 100", "unit": "µM"},
      {"measurement": "Km", "setting": "Gdx-Clo [1]; read-out: Km value", "result": 500, "unit": "µM"},
      {"measurement": "Maximal velocity for Gdm+ relative to guanylurea", "setting": "Gdx-Clo [1]; substrate at fivefold Km, normalized to Fluc-Bpe fluoride current", "result": "approximately twofold higher"},
      {"measurement": "Kd", "setting": "Gdx-Clo [2]; [4]", "result": "4300 ± 1000", "unit": "µM"},
      {"measurement": "Kd", "setting": "Gdx-Clo [2]; [5]", "result": "1500 ± 300", "unit": "µM"},
      {"measurement": "Kd", "setting": "Gdx-Clo [2]; [6]", "result": "960 ± 120", "unit": "µM"},
      {"measurement": "Kd", "setting": "Gdx-Clo [2]; [7]", "result": "660 ± 80", "unit": "µM"},
      {"measurement": "Kd", "setting": "Gdx-Clo [2]; [8]", "result": "480 ± 100", "unit": "µM"},
      {"measurement": "Kd", "setting": "Gdx-Clo [2]; [9]", "result": 600, "unit": "µM"}
    ]},
    {"compound": "N=C(N)NC(N)=O", "note": "[Guanylurea, guanylurea]", "values": [
      {"measurement": "Transport currents in substrate screen", "setting": "Gdx-Clo [1]", "result": "transported"},
      {"measurement": "Km", "setting": "Gdx-Clo [1]; [3]", "result": "220 ± 60", "unit": "µM"},
      {"measurement": "Km", "setting": "Gdx-Clo [1]; read-out: Km value", "result": 220, "unit": "µM"},
      {"measurement": "Kd", "setting": "Gdx-Clo [2]; [4]", "result": "860 ± 220", "unit": "µM"},
      {"measurement": "Kd", "setting": "Gdx-Clo [2]; [5]", "result": "190 ± 20", "unit": "µM"},
      {"measurement": "Kd", "setting": "Gdx-Clo [2]; [6]", "result": "120 ± 20", "unit": "µM"},
      {"measurement": "Kd", "setting": "Gdx-Clo [2]; [7]", "result": "59 ± 1", "unit": "µM"},
      {"measurement": "Kd", "setting": "Gdx-Clo [2]; [8]", "result": "91 ± 16", "unit": "µM"},
      {"measurement": "Kd", "setting": "Gdx-Clo [2]; pH 9.0, tryptophan fluorescence, mean ± SEM, read-out: Kd (apparent) for substrate binding to Gdx-Clo", "result": "63 ± 5", "unit": "µM"},
      {"measurement": "Kd", "setting": "Gdx-Clo [2]; [9]", "result": 70, "unit": "µM"}
    ]}
  ]
}
